According to patent US20210255193A1, “LYSINE REACTIVE PROBES AND USES THEREOF” (The Scripps Research Institute, priority 2017, published 2021):

Columns and labels:
Experiment in all cases: competitive isoTOP-ABPP
Type in all cases: binding
[1] = target: T1, RPS10 40S ribosomal protein S10 (Homo sapiens, UniProt P46783); conditions: for isoTOP-ABPP reactivity ratio at lysine P46783_K139: 231 sol
T1 construct: isoTOP-ABPP experiments performed in cell lysates (in vitro); endogenous in cells; host or cells: soluble proteome of human cancer cell lines (MDA-MB-231; Ramos and Jurkat also prepared)
Outline: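 Cell lysate (0.5 ml) was pre-treated with fragment, 50 μM for activated esters or 100 μM for guanidinylating agents, versus DMSO, then labeled 1 h at ambient temperature with 0.1 mM STP-alkyne. Light/heavy TEV tags attached by CuAAC; R = DMSO/compound MS1 peak-area ratio, median per lysine.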

[2] = target: T2, SRP54 Signal recognition particle 54 kDa protein (Homo sapiens, UniProt P61011); parameters: key to isoTOP-ABPP reactivity ratio at lysine P61011_K81: R = MS1 peak area ratio, DMSO (heavy) / compound-treated (light); capped at 20
T2 construct: isoTOP-ABPP experiments performed in cell lysates (in vitro); endogenous in cells; host or cells: soluble proteome of human cancer cell lines (MDA-MB-231, Ramos, Jurkat)
Experimental: (§1) In vitro covalent fragment treatment for isoTOP-ABPP. All compounds were made up as solutions in DMSO (100×) and were used at a final concentration of 50 μM for activated esters and 100 μM for guanidinylating agents. For each profiling sample, 0.5 ml of lysate was treated with 5 μl of the 100× compound stock solution or 5 μl of DMSO. Samples were treated with activated esters for
(§2) STP-alkyne labeling and click chemistry. For concentration-dependent reactivity measurements by isoTOP-ABPP, 0.5 ml proteome aliquots were treated at ambient temperature with 1 mM STP-alkyne 1 (5 μl of 100 mM stock in DMSO) and 0.1 mM STP alkyne 1 (5 μl of 10 mM stock in DMSO), respectively. For competitive isoTOP-ABPP, after in vitro fragment treatment (detailed above), the samples were labeled for 1 h at ambient temperature with 0.1 mM STP-alkyne 1 (5 μl of 10 mM stock in DMSO). Samples were conjugated by copper-mediated azide-alkyne cycloaddition (CuAAC) to either the light (1 mM STP-alkyne or fragment treated) or heavy (0.1 mM STP-alkyne or DMSO treated) TEV tags (10 μl of 5 mM stocks in DMSO, final concentration=100 μM) using tris(2-carboxyethyl)phosphine hydrochloride
(§3) R value calculation and processing. The ratios of light and heavy MS1 peaks for each unique peptide were quantified with a CIMAGE software using default parameters (3 MS1 acquisitions per peak and signal to noise threshold set to 2.5). For reactivity measurements by isoTOP-ABPP, the R value was calculated from the ratio of MS1 peak areas, comparing the 1 mM STP alkyne sample (light TEV tag) with the 0.1 mM STP alkyne sample (heavy TEV tag). For competitive isoTOP-ABPP, the R value was calculated from the ratio of MS1 peak areas, comparing the DMSO treated sample (heavy TEV tag) with the compound treated sample (light TEV tag). […] Ratios for unique peptide entries are calculated for each experiment; overlapping peptides with the same modified lysine (for example, different charge states, MudPIT chromatographic steps or tryptic termini) are grouped together and the median ratio is reported as the final ratio (R). The peptide ratios reported by CIMAGE were further filtered to ensure the removal or correction of low-quality ratios in each individual data set. The quality filters applied were the following: removal of half tryptic peptides; for ratios with high standard deviations from the median (90% of the median or above) the lowest ratio was taken instead of the median; removal of peptides with R=20 and only a single MS2 event triggered during the elution of the parent ion; manual annotation of all the peptides with ratios of 20, removing any peptides with low quality elution profiles that remained after the previous curation steps (only done for competitive isoTOP-ABPP).
(§4) Cross-data processing for fragment screening. For compound treated samples, biological replicates of the same condition were averaged, if the standard deviation was below 60% of the mean; otherwise, for lysines with at least one R value <4 for a particular compound, the lowest value of the ratio set was taken. For lysines, where all R values for a particular compound were ≥4, the average was reported. For peptides containing several possible modified lysines, the lysine with the highest number of quantification events was used for analysis and the remaining, redundant peptides were reported as alternative modification sites. Peptides included in the aggregate dataset (those used for further bioinformatics and statistical analyses) were required to have been quantified in 2 experiments for competitive isoTOP-ABPP. Lysines were categorized as liganded, if they had at least one ratio R≥4 (hit fragments). For liganded lysines with R=20 for all liganding events, lysines were required to have been quantified with R=20 in two separate experiments and were further required to have been quantified with R<20 in one additional experiment.

[3] = target: T3, PSME3 Proteasome activator complex subunit 3 (Homo sapiens, UniProt P61289); parameters: key to isoTOP-ABPP reactivity ratio at lysine P61289_K237: R = MS1 peak area ratio, DMSO (heavy) / compound-treated (light); key to isoTOP-ABPP reactivity ratio at lysine P61289_K12: R = MS1 peak area ratio, DMSO (heavy) / compound-treated (light); capped at 20; conditions: for isoTOP-ABPP ratio, lysine P61289_K12 / isoTOP-ABPP ratio, lysine P61289_K237: 100 uM_231_sol_in vitro
T3 construct: isoTOP-ABPP experiments performed in cell lysates (in vitro); endogenous in cells; host or cells: soluble proteome of human cancer cell lines (MDA-MB-231, Ramos, Jurkat)
Experimental: as §1, §2, §3, §4

[4] = target: T4, ACBD3 Golgi resident protein GCP60 (Homo sapiens, UniProt Q9H3P7); parameters: key to isoTOP-ABPP reactivity ratio at lysine Q9H3P7_K117: R = MS1 peak area ratio, DMSO (heavy) / compound-treated (light); conditions: for isoTOP-ABPP reactivity ratio at lysine Q9H3P7_K117: 231 sol
T4 construct: isoTOP-ABPP experiments performed in cell lysates (in vitro); endogenous in cells; host or cells: soluble proteome of human cancer cell lines (MDA-MB-231; Ramos and Jurkat also prepared)
T4 sequence (Q9H3P7 1-528): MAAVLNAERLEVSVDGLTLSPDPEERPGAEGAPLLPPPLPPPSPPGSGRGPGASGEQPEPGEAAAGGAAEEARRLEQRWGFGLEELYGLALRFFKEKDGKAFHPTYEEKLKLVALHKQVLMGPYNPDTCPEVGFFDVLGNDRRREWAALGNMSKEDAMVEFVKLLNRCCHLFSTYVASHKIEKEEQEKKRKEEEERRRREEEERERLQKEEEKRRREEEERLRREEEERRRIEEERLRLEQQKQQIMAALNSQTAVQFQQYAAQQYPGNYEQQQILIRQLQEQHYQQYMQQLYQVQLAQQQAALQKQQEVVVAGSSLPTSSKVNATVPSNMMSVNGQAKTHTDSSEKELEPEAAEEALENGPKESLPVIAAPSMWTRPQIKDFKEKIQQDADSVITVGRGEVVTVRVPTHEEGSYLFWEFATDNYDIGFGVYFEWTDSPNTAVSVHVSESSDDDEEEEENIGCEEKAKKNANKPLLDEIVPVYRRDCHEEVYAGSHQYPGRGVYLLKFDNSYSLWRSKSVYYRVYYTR
Experimental: as §1, §2, §3, §4

T2 sequence (P61011 whole entry): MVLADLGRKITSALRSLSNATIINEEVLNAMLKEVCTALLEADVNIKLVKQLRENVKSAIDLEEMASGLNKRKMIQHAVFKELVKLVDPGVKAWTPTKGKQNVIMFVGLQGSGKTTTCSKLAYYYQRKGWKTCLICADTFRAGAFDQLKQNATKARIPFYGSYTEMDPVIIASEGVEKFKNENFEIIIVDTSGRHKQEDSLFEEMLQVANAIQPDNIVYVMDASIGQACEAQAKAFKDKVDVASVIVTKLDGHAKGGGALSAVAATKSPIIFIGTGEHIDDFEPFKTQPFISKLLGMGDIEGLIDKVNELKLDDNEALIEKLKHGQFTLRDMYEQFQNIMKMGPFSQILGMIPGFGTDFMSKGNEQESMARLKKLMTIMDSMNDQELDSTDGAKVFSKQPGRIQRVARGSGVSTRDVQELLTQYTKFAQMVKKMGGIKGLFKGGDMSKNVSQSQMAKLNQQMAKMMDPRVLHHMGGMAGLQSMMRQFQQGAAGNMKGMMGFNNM
T3 sequence (P61289 whole entry, one chain of several): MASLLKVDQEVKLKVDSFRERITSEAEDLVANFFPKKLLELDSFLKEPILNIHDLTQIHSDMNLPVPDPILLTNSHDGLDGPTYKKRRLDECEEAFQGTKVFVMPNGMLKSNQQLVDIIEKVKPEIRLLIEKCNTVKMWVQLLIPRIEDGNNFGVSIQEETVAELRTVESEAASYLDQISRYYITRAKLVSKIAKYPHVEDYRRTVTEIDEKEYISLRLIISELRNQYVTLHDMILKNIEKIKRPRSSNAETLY

In the case of `O=C(CCc1cn(-c2ccccc2)nc1-c1ccccc1)Oc1ccc([N+](=O)[O-])cc1[N+](=O)[O-]` [fragment 29, 2,4-Dinitrophenyl 3-(1,3-diphenyl-1H-pyrazol-4-yl)propanoate], the “isoTOP-ABPP reactivity ratio at lysine P46783_K139” value ([1]; 50 uM, in vitro) is reported as 20.0, the “isoTOP-ABPP reactivity ratio at lysine P61011_K81” value ([2]; 50 uM, 231 sol, in vitro) is reported as 1.1 and the “isoTOP-ABPP reactivity ratio at lysine P61289_K12” value ([3]; 50 uM, 231 sol, in vitro) is reported as 1.1. For the same compound, the “isoTOP-ABPP reactivity ratio at lysine P61289_K237” value ([3]; 50 uM, 231 sol, in vitro) was 0.4 and the “isoTOP-ABPP reactivity ratio at lysine Q9H3P7_K117” value ([4]; 50 uM, in vitro) was 1.0.
With `O=C(Oc1c(F)c(F)cc(F)c1F)c1cc(C(F)(F)F)cc(C(F)(F)F)c1` [fragment 48, 2,3,5,6-Tetrafluorophenyl 3,5-bis(trifluoromethyl)benzoate] the “isoTOP-ABPP ratio, lysine P46783_K139” value ([1]; 50 uM_231_sol_in vitro) was 0.8, the “isoTOP-ABPP ratio, lysine P61011_K81” value ([2]; 50 uM_231_sol_in vitro) was 1.1 and the “isoTOP-ABPP ratio, lysine Q9H3P7_K117” value ([4]; 50 uM_231_sol_in vitro) was 0.9.
With `CC(C)(C)OC(=O)N=C(NC(=O)OC(C)(C)C)n1cccn1` [fragment 50, reference compound] the “isoTOP-ABPP ratio, lysine P46783_K139” value ([1]; 100 uM_231_sol_in vitro) was 1.1, the “isoTOP-ABPP ratio, lysine P61289_K12” value [3] was 0.7 and the “isoTOP-ABPP ratio, lysine P61289_K237” value [3] was 0.9. For the same compound, the “isoTOP-ABPP ratio, lysine Q9H3P7_K117” value ([4]; 100 uM_231_sol_in vitro) was 14.9.
For `N#Cc1ccc(C(=O)Oc2ccc([N+](=O)[O-])cc2[N+](=O)[O-])cc1` [fragment 44, 2,4-Dinitrophenyl 4-cyanobenzoate], the “isoTOP-ABPP ratio, lysine P46783_K139” value ([1]; 50 uM_231_sol_in vitro) was 0.6, the “isoTOP-ABPP ratio, lysine P61011_K81” value ([2]; 50 uM_231_sol_in vitro) was 1.0 and the “isoTOP-ABPP ratio, lysine Q9H3P7_K117” value ([4]; 50 uM_231_sol_in vitro) was 0.8.
`O=C(Oc1ccc([N+](=O)[O-])cc1[N+](=O)[O-])c1ccc(-c2ccccc2)cc1` [fragment 37, 2,4-Dinitrophenyl [1,1′-biphenyl]-4-carboxylate] was tested, and the “isoTOP-ABPP ratio (R) at liganded lysine P46783_K139” value ([1]; 50 uM, in vitro, sol, 231) was 0.6, the “isoTOP-ABPP ratio (R) at liganded lysine P61011_K81” value ([2]; 50 uM, in vitro, sol, 231) was 0.9 and the “isoTOP-ABPP ratio (R) at liganded lysine P61289_K12” value ([3]; 50 uM, in vitro, sol, 231) was 0.9. For the same compound, the “isoTOP-ABPP ratio (R) at liganded lysine P61289_K237” value ([3]; 50 uM, in vitro, sol, 231) was 1.0 and the “isoTOP-ABPP ratio (R) at liganded lysine Q9H3P7_K117” value ([4]; 50 uM, in vitro, sol, 231) was 0.9.
For `COC(=O)NC(=NC(=O)OCC1c2ccccc2-c2ccccc21)n1cccn1` [fragment 49, N-Methoxycarbonyl-N′-9-fluorenylmethoxycarbonyl-pyrazole-1-carboxamidine], the “isoTOP-ABPP ratio, lysine P46783_K139” value ([1]; 100 uM_231_sol_in vitro) was 20.0, the “isoTOP-ABPP ratio, lysine P61011_K81” value ([2]; 100 uM_231_sol_in vitro) was 1.0 and the “isoTOP-ABPP ratio, lysine P61289_K12” value [3] was 0.8. For the same compound, the “isoTOP-ABPP ratio, lysine P61289_K237” value [3] was 0.8 and the “isoTOP-ABPP ratio, lysine Q9H3P7_K117” value ([4]; 100 uM_231_sol_in vitro) was 13.9.
For `O=C(Oc1c(F)c(F)c(F)c(F)c1F)C1CCN(C(=O)OCc2ccccc2)CC1` [fragment 24, 1-Benzyl 4-(pentafluorophenyl) piperidine-1,4-dicarboxylate], the “isoTOP-ABPP reactivity ratio at lysine P46783_K139” value ([1]; 50 uM, in vitro) was 1.2, the “isoTOP-ABPP reactivity ratio at lysine P61289_K237” value ([3]; 50 uM, 231 sol, in vitro) was 0.2 and the “isoTOP-ABPP reactivity ratio at lysine Q9H3P7_K117” value ([4]; 50 uM, in vitro) was 1.0.
